Measurements published in patent US20240238268A1, “TREATMENTS AND METHODS FOR TREATING ALZHEIMER'S DISEASE” (Board of Supervisors of Louisiana State University and …, priority 2021, published 2024).

Experiments:
Format in all cases: in vivo, mouse
occludin = test: Occludin tight junction protein level in brain, capillary-based immunoassay; settings: C57 mice; 10 mg/kg, IP, 7 days
Protocol: (§1) FIGS. 16A-16G show NOTCH1 inhibition (via crenigacestat) decreased ZO-1 and occluding and AAV knockdown of PRMT4 enhanced ZO-1 and occludin. […] C57 female mice. FIGS. 16B and 16C show crenigacestat (10 mg/kg, IP, 7 days) reduced NOTCH1 (110 kDa) protein level in the cortex and hippocampus of aged C57 female mice. AAV knockdown of PRMT4 increased NOTCH1 protein level. FIGS. 16D-16G show ZO-1 (220 kDa), and occludin (60 kDa) tight junctional proteins were decreased in the cortex and hippocampus in presence of NOTCH1 inhibitor in C57. PRMT4-AAV increased the expression of ZO-1 and occludin in aged 3xTg-AD female mice. Protein level was measured by capillary-based immunoassay and normalized to total protein. * p<0.05 compared to C57, #p<0.05 compared to 3xTg-AD, $p<0.05 compared to 3xTg-AD+AAV as evaluated by one-way ANOVA with Tukey's post-hoc analyses.
(§2) Capillary-phoresis immunoassay via ProteinSimple®: Quantification of all protein targets was achieved using Simple Western analysis in a Jess™ apparatus per the manufacturer's protocol (ProteinSimple, Bio-techne, Minneapolis, MN). […] Following homogenization and centrifugation (10,000×g, 5 min, 4° C.), protein concentration was determined in tissue protein supernatant samples using DC Protein Assay (Cat. No. 5000112, Bio-Rad Laboratories, Hercules, California) according to manufacturer instructions. […]

C57 mice = test: Neurovascular coupling: microvessel diameter, two-photon laser scanning microscopy, C57 mice; settings: 10 mg/kg, 7 days, IP
NOTCH1 = NOTCH1 protein level in brain, capillary-based immunoassay; settings: aged C57 female mice; 10 mg/kg, IP, 7 days
Protocol: NOTCH1 protein level in cortex, FIG. 13A, and hippocampus, FIG. 13B, was decreased in aged 3xTg-AD female mice v. male counterparts. Treatment with specific PRMT4 specific inhibitor (TP-064, 30 mg/kg, 7 days, IP) or AAV knockdown of PRMT4 enhanced NOTCH1 protein level in cortex, […], and hippocampus, […], in aged 3xTg-AD female mice. Relative NOTCH1 protein (˜110 kDa) level was measured by capillary-based immunoassay and normalized to total protein. * p<0.05 v. control male mice evaluated by unpaired t-test in FIGS. 13A and 13B. * p<0.05 compared to C57, #p<0.05 compared to 3xTg-AD+TP-064, $p<0.05 compared to 3xTg-AD+AAV, evaluated by one-way ANOVA with Tukey's post-hoc analyses in FIGS. 13C and 13D.
as §1
Capillary-phoresis immunoassay via ProteinSimple®: Quantification of all protein targets was achieved using Simple Western analysis in a Jess™ apparatus per the manufacturer's protocol (ProteinSimple, Bio-techne, Minneapolis, MN). […] Following homogenization and centrifugation (10,000×g, 5 min, 4° C.), protein concentration was determined in tissue protein supernatant samples using DC Protein Assay (Cat. No. 5000112, Bio-Rad Laboratories, Hercules, California) according to manufacturer instructions. […] Antibody diluent (ProteinSimple, Bio-techne, Minneapolis, MN) was used for all antibody dilutions as follows: PRMT4 (1:50, RRID: AB_2068436), PRMT6 (1:100, Cell Signaling Technology cat. 14641), eNOS (1:200, RRID: AB_10850618), nNOS (1:100, RRID: AB_2152488), iNOS (1:100, RRID: AB_10000625), DDAH2 (1:50, RRID: AB_2640442) Antibodies were detected using HRP-conjugated secondary anti-rabbit, and -mouse. Relative protein levels were calculated by measuring the area under the peak of a chemiluminescent chromatogram and normalized to total capillary chemiluminescence for a given sample. […]

ZO-1 = ZO-1 tight junction protein level in brain, capillary-based immunoassay; settings: C57 mice; 10 mg/kg, IP, 7 days
Protocol: as §1, §2

## C[C@H](NC(=O)CCC(F)(F)F)C(=O)N[C@@H]1C(=O)N(CCO)c2ncccc2-c2ccccc21 [Crenigacestat]
occludin
  occludin protein level in cortex: decreased
  occludin protein level in hippocampus: decreased
C57 mice
  microvessel diameter: decrease
NOTCH1
  NOTCH1 protein level in cortex: reduced
  NOTCH1 protein level in hippocampus: reduced
ZO-1
  ZO-1 protein level in cortex: decreased
  ZO-1 protein level in hippocampus: decreased
